#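 The compound was tested at five concentrations on cells cultured in 96-well plates, with a 48-hour exposure period. GI50: concentration for 50% inhibition of growth. TGI: concentration producing complete growth inhibition.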
# Tests used:
# Assay in all cases: DTP human tumour cell line panel, 48 h
# MALME-3M melanoma = tested on: MALME-3M melanoma
# SK-OV-3 ovarian = tested on: SK-OV-3 ovarian
# UACC-257 melanoma = tested on: UACC-257 melanoma
# SN12C renal = tested on: SN12C renal
# U251 CNS = tested on: U251 CNS
# EKVX NSCLC = tested on: EKVX NSCLC
# UO-31 renal = tested on: UO-31 renal
# K-562 leukemia = tested on: K-562 leukemia
SMILES,GI50 (MALME-3M melanoma) [µM],TGI (MALME-3M melanoma) [µM],GI50 (SK-OV-3 ovarian) [µM],TGI (SK-OV-3 ovarian) [µM],GI50 (UACC-257 melanoma) [µM],TGI (UACC-257 melanoma) [µM],GI50 (SN12C renal) [µM],TGI (SN12C renal) [µM],GI50 (U251 CNS) [µM],TGI (U251 CNS) [µM],GI50 (EKVX NSCLC) [µM],TGI (EKVX NSCLC) [µM],GI50 (UO-31 renal) [µM],TGI (UO-31 renal) [µM],TGI (K-562 leukemia) [µM],GI50 (K-562 leukemia) [µM]
O=C1C(=O)c2c(ccc3ccccc23)-c2ccccc21,1.63,3.44,2.05,5.06,1.74,4.07,1.6,3.31,1.67,3.56,1.98,5.39,2.39,> 100,,
CC(C)(CCc1nc2ccccc2[nH]1)C(=O)O,,> 100,,> 100,,> 100,,> 100,,> 100,,> 100,,> 100,> 100,
O=C1OC(c2ccccc2)=N/C1=C\c1ccc(N(CCCl)CCCl)cc1,,> 100,,> 100,,> 100,,> 100,,> 100,,> 100,,> 100,> 100,
CN(C)C(=O)c1cc2cnc(Nc3ccc(N4CCNCC4)cn3)nc2n1C1CCCC1,5.4,22.3,34.8,> 100,15.7,33.4,13.9,93.6,11.3,49.8,,,4.56,62.1,> 100,17.6
Clc1ccc(N=CNc2ccc(-c3nc4ccccc4[nH]3)cc2)cc1,,,> 100,> 100,> 100,> 100,> 100,> 100,20.9,> 100,0.482,34.5,13.9,> 100,17.2,1.56
CC(=O)OC1CCC2(C)C(=CCC3C4CC(CN5CC5)C(=O)C4(C)CCC32)C1 (centres undefined),2.21,5.56,15.6,29.6,12.9,26.4,15.4,30.4,13.6,27.6,,,2.99,10.4,14.2,3.33
CCn1c(SC)nnc1-c1cc2c([nH]c3ccccc32)c(-c2cccc(O)c2)n1,1.37,9.58,2.44,6.3,,,4.44,51.4,2.97,19.1,3.02,26.2,1.94,15.8,> 100,0.547
COc1ccc(-c2ccc(/C=N/n3c(COc4ccc(Cl)c(C)c4)nn(CN4CCOCC4)c3=S)o2)c([N+](=O)[O-])c1,17.9,43.1,34.4,> 100,,,21.3,48.1,30.5,> 100,26.4,> 100,28.8,> 100,51.7,20.4
N#Cc1c(N/N=C/c2c(Cl)cccc2Cl)nc(N)nc1N1CCCC1,,,5.12,> 100,,,4.68,> 100,2.51,> 100,39.7,> 100,5.36,> 100,6.75,2.87
Cc1ccc(S(=O)(=O)NCc2cccc([N+](=O)[O-])c2)cc1,,> 100,,> 100,,> 100,,> 100,,> 100,,> 100,,,,
Cc1cc2c(SCc3ccccc3Cl)nc(N)nc2nc1C,,> 100,,> 100,,> 100,,> 100,,> 100,,> 100,,> 100,,
COc1cc(/C=C/C(=O)c2c(-c3ccc(Cl)cc3)nc3sc(C)nn23)cc(OC)c1OC,25.6,> 100,66.6,> 100,16,> 100,53.9,> 100,17.1,> 100,,,7.27,> 100,> 100,4.49
COc1ccc(S(=O)(=O)NCCCNc2nccc(-c3c(-c4ccc(F)cc4)nc4sccn34)n2)cc1,5.78,> 100,8.11,> 100,12.6,> 100,7.55,> 100,7.26,> 100,,,3.83,> 100,> 100,2.99
C=CCCC1(CCP(=O)(c2ccccc2)c2ccccc2)OCCO1,,> 100,,,,> 100,,> 100,,> 100,,> 100,,> 100,> 100,
O=C(Nc1cccc(C(F)(F)F)c1)Nc1ccc(OCc2nnc(-c3ccccc3)o2)c(F)c1,3.35,,5.57,27.3,6.38,37.9,9.36,46.1,3.73,19.6,,,3.11,21,47.2,5.12
Cn1c(=O)c(Oc2ccc(F)cc2F)cc2cnc(NC3CCC(O)CC3)nc21 (centres undefined),> 25,> 25,> 25,> 25,> 25,> 25,> 25,> 25,> 25,> 25,,,12.1,> 25,> 25,> 25
Cc1cc(C2(c3cc(C)c(O)c4ncccc34)OC(=O)c3ccccc32)c2cccnc2c1O,,> 100,,21.9,0.496,> 100,,12.1,,> 100,0.0124,,,,> 100,
OCCn1c(-c2ccncc2)c(-c2ccc(F)cc2)c2ncccc21,> 25,> 25,> 25,> 25,> 25,> 25,> 25,> 25,> 25,> 25,,,12.5,> 25,> 25,> 25
